Experimental data taken from the supplement of paper PMC10307832.

Assays:
Assay in all cases: relative viability (nuclei count vs DMSO), 5 days (fraction); higher = more cells survive
BEN = tested on: BEN
Method in brief: (§1)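 Relative viability equals treated-well nuclei counts divided by vehicle-well nuclei counts. Counts came from 4× images of lung cancer cell lines grown in 1536-well plates for 5 days after pin-tool dosing on the day after seeding. Dosing used one drug alone or a fixed anchor-drug dose plus five library-drug doses (not always all listed) in √10 steps, and values are medians of duplicate plates.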

NCI-H727 = tested on: NCI-H727
Method in brief: as §1

NCI-H2405 = tested on: NCI-H2405
Method in brief: as §1

NCI-H322M = tested on: NCI-H322M
Method in brief: as §1

NCI-H3122 = tested on: NCI-H3122
Method in brief: as §1

NCI-H1355 = tested on: NCI-H1355
Method in brief: as §1

RERF-LC-KJ = tested on: RERF-LC-KJ
Method in brief: as §1

SK-LU-1 = tested on: SK-LU-1
Method in brief: as §1

NCI-H2023 = tested on: NCI-H2023
Method in brief: as §1

HOP-62 = tested on: HOP-62
Method in brief: as §1

NCI-H2087 = tested on: NCI-H2087
Method in brief: as §1

NCI-H1793 = tested on: NCI-H1793
Method in brief: as §1

LCLC-97TM1 = tested on: LCLC-97TM1
Method in brief: as §1

CAL-12T = tested on: CAL-12T
Method in brief: as §1

NCI-H1395 = tested on: NCI-H1395
Method in brief: as §1

LXF-289 = tested on: LXF-289
Method in brief: as §1

HCC-827 = tested on: HCC-827
Method in brief: as §1

HCC-44 = tested on: HCC-44
Method in brief: as §1

NCI-H1437 = tested on: NCI-H1437
Method in brief: as §1

NCI-H647 = tested on: NCI-H647
Method in brief: as §1

NCI-H2228 = tested on: NCI-H2228
Method in brief: as §1

NCI-H1650 = tested on: NCI-H1650
Method in brief: as §1

LCLC-103H = tested on: LCLC-103H
Method in brief: as §1

201T = tested on: 201T
Method in brief: as §1

Work on `Clc1ccc(Nc2nnc(Cc3ccncc3)c3ccccc23)cc1` [Vatalanib] + N=C(N)NC(=N)NCCc1ccccc1 [Phenformin] (partner 250 µM) yielded a relative viability (BEN; first compound 0.04 µM) of 0.29, a relative viability (BEN; first compound 0.1265 µM) of 0.233 and a relative viability (BEN; first compound 0.4 µM) of 0.274. For the same molecule, the relative viability (BEN; first compound 1.265 µM) was 0.231, the relative viability (BEN; first compound 4 µM) was 0.306 and the relative viability (NCI-H727; first compound 0.04 µM) was 0.531. For the same molecule, the relative viability (NCI-H727; first compound 0.1265 µM) was 0.572, the relative viability (NCI-H727; first compound 0.4 µM) was 0.519 and the relative viability (NCI-H727; first compound 1.265 µM) was 0.558. For the same molecule, the relative viability (NCI-H727; first compound 4 µM) was 0.466, the relative viability (NCI-H2405; first compound 0.04 µM) was 0.425 and the relative viability (NCI-H2405; first compound 0.1265 µM) was 0.376. For the same molecule, the relative viability (NCI-H2405; first compound 1.265 µM) was 0.391, the relative viability (NCI-H2405; first compound 4 µM) was 0.368 and the relative viability (NCI-H322M; first compound 0.04 µM) was 0.755. The relative viability (NCI-H322M; first compound 0.1265 µM) was 0.789, the relative viability (NCI-H322M; first compound 0.4 µM) was 0.826 and the relative viability (NCI-H322M; first compound 1.265 µM) was 0.685. It also gave a relative viability (NCI-H322M; first compound 4 µM) of 0.759, a relative viability (NCI-H3122; first compound 0.04 µM) of 0.401 and a relative viability (NCI-H3122; first compound 0.1265 µM) of 0.365. It also gave a relative viability (NCI-H3122; first compound 1.265 µM) of 0.316, a relative viability (NCI-H3122; first compound 4 µM) of 0.323 and a relative viability (NCI-H1355; first compound 0.04 µM) of 0.511. The relative viability (NCI-H1355; first compound 0.1265 µM) was 0.419, the relative viability (NCI-H1355; first compound 0.4 µM) was 0.444 and the relative viability (NCI-H1355; first compound 1.265 µM) was 0.431. It also gave a relative viability (NCI-H1355; first compound 4 µM) of 0.401, a relative viability (RERF-LC-KJ; first compound 0.04 µM) of 0.479 and a relative viability (RERF-LC-KJ; first compound 0.1265 µM) of 0.41. It also gave a relative viability (RERF-LC-KJ; first compound 0.4 µM) of 0.443, a relative viability (RERF-LC-KJ; first compound 1.265 µM) of 0.341 and a relative viability (RERF-LC-KJ; first compound 4 µM) of 0.425. The relative viability (SK-LU-1; first compound 0.04 µM) was 0.631, the relative viability (SK-LU-1; first compound 0.1265 µM) was 0.462 and the relative viability (SK-LU-1; first compound 0.4 µM) was 0.663. It also gave a relative viability (SK-LU-1; first compound 1.265 µM) of 0.494, a relative viability (SK-LU-1; first compound 4 µM) of 0.52 and a relative viability (NCI-H2023; first compound 0.04 µM) of 0.447. For the same molecule, the relative viability (NCI-H2023; first compound 0.1265 µM) was 0.397, the relative viability (NCI-H2023; first compound 0.4 µM) was 0.477 and the relative viability (NCI-H2023; first compound 1.265 µM) was 0.376. It also gave a relative viability (NCI-H2023; first compound 4 µM) of 0.341, a relative viability (HOP-62; first compound 0.04 µM) of 0.668 and a relative viability (HOP-62; first compound 0.1265 µM) of 0.65. The relative viability (HOP-62; first compound 0.4 µM) was 0.649, the relative viability (HOP-62; first compound 1.265 µM) was 0.624 and the relative viability (HOP-62; first compound 4 µM) was 0.633. The relative viability (NCI-H2087; first compound 0.04 µM) was 0.484, the relative viability (NCI-H2087; first compound 0.1265 µM) was 0.404 and the relative viability (NCI-H2087; first compound 0.4 µM) was 0.428. It also gave a relative viability (NCI-H2087; first compound 1.265 µM) of 0.461, a relative viability (NCI-H2087; first compound 4 µM) of 0.541 and a relative viability (NCI-H1793; first compound 0.04 µM) of 0.354. It also gave a relative viability (NCI-H1793; first compound 0.1265 µM) of 0.341, a relative viability (NCI-H1793; first compound 0.4 µM) of 0.435 and a relative viability (NCI-H1793; first compound 1.265 µM) of 0.295. The relative viability (NCI-H1793; first compound 4 µM) was 0.296, the relative viability (LCLC-97TM1; first compound 0.04 µM) was 0.417 and the relative viability (LCLC-97TM1; first compound 0.1265 µM) was 0.388. It also gave a relative viability (LCLC-97TM1; first compound 0.4 µM) of 0.46, a relative viability (LCLC-97TM1; first compound 1.265 µM) of 0.407 and a relative viability (LCLC-97TM1; first compound 4 µM) of 0.396. It also gave a relative viability (CAL-12T; first compound 0.04 µM) of 0.633, a relative viability (CAL-12T; first compound 0.1265 µM) of 0.495 and a relative viability (CAL-12T; first compound 0.4 µM) of 0.328. It also gave a relative viability (CAL-12T; first compound 1.265 µM) of 0.539, a relative viability (CAL-12T; first compound 4 µM) of 0.567 and a relative viability (NCI-H1395; first compound 0.04 µM) of 0.441. For the same molecule, the relative viability (NCI-H1395; first compound 0.1265 µM) was 0.419, the relative viability (NCI-H1395; first compound 0.4 µM) was 0.437 and the relative viability (NCI-H1395; first compound 1.265 µM) was 0.399. For the same molecule, the relative viability (NCI-H1395; first compound 4 µM) was 0.449, the relative viability (LXF-289; first compound 0.04 µM) was 0.505 and the relative viability (LXF-289; first compound 0.1265 µM) was 0.465. The relative viability (LXF-289; first compound 0.4 µM) was 0.558, the relative viability (LXF-289; first compound 1.265 µM) was 0.53 and the relative viability (LXF-289; first compound 4 µM) was 0.539. It also gave a relative viability (HCC-827; first compound 0.04 µM) of 0.413, a relative viability (HCC-827; first compound 0.1265 µM) of 0.418 and a relative viability (HCC-827; first compound 0.4 µM) of 0.304. The relative viability (HCC-827; first compound 1.265 µM) was 0.425, the relative viability (HCC-827; first compound 4 µM) was 0.378 and the relative viability (HCC-44; first compound 0.04 µM) was 0.178. It also gave a relative viability (HCC-44; first compound 0.1265 µM) of 0.257, a relative viability (HCC-44; first compound 0.4 µM) of 0.0876 and a relative viability (HCC-44; first compound 1.265 µM) of 0.182. For the same molecule, the relative viability (HCC-44; first compound 4 µM) was 0.147, the relative viability (NCI-H1437; first compound 0.04 µM) was 0.341 and the relative viability (NCI-H1437; first compound 0.1265 µM) was 0.281. For the same molecule, the relative viability (NCI-H1437; first compound 0.4 µM) was 0.298, the relative viability (NCI-H1437; first compound 1.265 µM) was 0.247 and the relative viability (NCI-H1437; first compound 4 µM) was 0.273. The relative viability (NCI-H647; first compound 0.04 µM) was 0.466, the relative viability (NCI-H647; first compound 0.1265 µM) was 0.562 and the relative viability (NCI-H647; first compound 0.4 µM) was 0.521. The relative viability (NCI-H647; first compound 1.265 µM) was 0.401, the relative viability (NCI-H647; first compound 4 µM) was 0.54 and the relative viability (NCI-H2228; first compound 0.04 µM) was 0.364. It also gave a relative viability (NCI-H2228; first compound 0.1265 µM) of 0.317, a relative viability (NCI-H2228; first compound 0.4 µM) of 0.335 and a relative viability (NCI-H2228; first compound 1.265 µM) of 0.366. It also gave a relative viability (NCI-H2228; first compound 4 µM) of 0.322, a relative viability (NCI-H1650; first compound 0.04 µM) of 0.401 and a relative viability (NCI-H1650; first compound 0.1265 µM) of 0.307. For the same molecule, the relative viability (NCI-H1650; first compound 0.4 µM) was 0.36, the relative viability (NCI-H1650; first compound 1.265 µM) was 0.364 and the relative viability (NCI-H1650; first compound 4 µM) was 0.403. It also gave a relative viability (LCLC-103H; first compound 0.04 µM) of 0.339, a relative viability (LCLC-103H; first compound 0.1265 µM) of 0.306 and a relative viability (LCLC-103H; first compound 0.4 µM) of 0.373. It also gave a relative viability (LCLC-103H; first compound 1.265 µM) of 0.363, a relative viability (LCLC-103H; first compound 4 µM) of 0.316 and a relative viability (201T; first compound 0.04 µM) of 0.436. For the same molecule, the relative viability (201T; first compound 0.1265 µM) was 0.451, the relative viability (201T; first compound 0.4 µM) was 0.437 and the relative viability (201T; first compound 1.265 µM) was 0.405. It also gave a relative viability (201T; first compound 4 µM) of 0.431.
